{
  "source": "patent US20210317165A1",
  "about": "“ZP3 FRAGMENTS IN IMMUNOTHERAPY OF OVARIAN CANCER” (LABORATOIRE HRA-PHARMA, priority 2018, published 2021)",
  "system": "ZP3-specific TCD8",
  "experiment": "ELISPOT IFNγ of spleen TCD8 stimulated ex vivo with APC pulsed with each peptide separately",
  "format": "in vivo, HLA-A2/DR1 transgenic mice",
  "details": "mice immunized with pool A+B, restimulation with each peptide separately",
  "experimental": "HLA-A2/DR1 transgenic mice received three subcutaneous administrations of peptides pool and GM-CSF/CpG adjuvant as follow:\nA first group (group 1) of mice received 100 μg/mice of a pool of peptides A+B (SEQ ID NO: 1, 2, 4, 5, 6, 10, 12, 13, 15 and 17) and GM-CSF adjuvant at Day 0 (D0). At D1, CpG wad injected. 100 μg/mice of pool of peptides A+B was injected at D14 and D30. Mice were sacrificed and analyzed at D40.\nThe ZP3-specific TCD8 response was measured by ex vivo stimulation of TCD8 from spleen of mice with APC pulsed with peptides (each peptides separately). The number of activated TCD8 cells was measured by ELISPOT IFNγ.",
  "data": [
    {"sequence": "NMIYITCHL (Peptide of human ZP3) [Peptide 13, hZP3 fragment, position 276]", "values": [
      {"measurement": "ZP3-specific TCD8 response", "setting": "FIG. 2, listed as SEQ ID NO: 13", "value": "strong specific TCD8 response (statistically significant)"}
    ]},
    {"sequence": "LRLMEENWNA (Peptide of human ZP3) [Peptide 6, hZP3 fragment, position 174]", "values": [
      {"measurement": "ZP3-specific TCD8 response", "setting": "FIG. 2, listed as SEQ ID NO: 6", "value": "strong specific TCD8 response (statistically significant)"}
    ]},
    {"sequence": "FTVDVFHFA (Peptide of human ZP3) [Peptide 5, hZP3 fragment, position 263]", "values": [
      {"measurement": "ZP3-specific TCD8 response", "setting": "FIG. 2, listed as SEQ ID NO: 5", "value": "strong specific TCD8 response (statistically significant)"}
    ]}
  ]
}
